Square brackets hold non-standard residues; d marks the D form. Peptide text beside a SMILES is read from it. * marks the point of attachment. Tyr(Nα,Nα-allyl2) = C=CCN(CC=C)[C@@H](Cc1ccc(O)cc1)C(=O)*; Aib = CC(C)(N)C(=O)O
Columns and labels:
[1] = molecular target: T1, Delta-type opioid receptor (Homo sapiens, UniProt P41143); assay: Displacement of [3H]DPDPE from human DOR expressed in CHO cells; type: cell-based
[2] = molecular target: Mu-type opioid receptor (Homo sapiens, UniProt P35372); assay: Displacement of [3H]DAMGO from human MOR expressed in CHO cells; type: cell-based
Mu-type opioid receptor, sequence (P35372 whole entry): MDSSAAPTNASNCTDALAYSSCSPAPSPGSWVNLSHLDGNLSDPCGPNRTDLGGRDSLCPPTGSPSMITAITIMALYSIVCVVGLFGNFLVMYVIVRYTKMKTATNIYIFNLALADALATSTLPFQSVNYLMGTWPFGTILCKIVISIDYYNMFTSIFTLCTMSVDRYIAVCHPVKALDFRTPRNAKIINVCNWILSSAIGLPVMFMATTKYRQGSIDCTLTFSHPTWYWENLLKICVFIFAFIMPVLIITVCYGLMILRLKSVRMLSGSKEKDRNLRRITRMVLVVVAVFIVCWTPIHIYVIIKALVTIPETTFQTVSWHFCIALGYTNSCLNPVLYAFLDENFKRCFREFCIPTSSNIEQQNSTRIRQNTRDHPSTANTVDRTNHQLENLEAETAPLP

[3] = molecular target: Kappa-type opioid receptor (Homo sapiens, UniProt P41145); assay: Displacement of [3H]U-69,593 from human KOR expressed in CHO cells; type: cell-based
Kappa-type opioid receptor, sequence (P41145 whole entry): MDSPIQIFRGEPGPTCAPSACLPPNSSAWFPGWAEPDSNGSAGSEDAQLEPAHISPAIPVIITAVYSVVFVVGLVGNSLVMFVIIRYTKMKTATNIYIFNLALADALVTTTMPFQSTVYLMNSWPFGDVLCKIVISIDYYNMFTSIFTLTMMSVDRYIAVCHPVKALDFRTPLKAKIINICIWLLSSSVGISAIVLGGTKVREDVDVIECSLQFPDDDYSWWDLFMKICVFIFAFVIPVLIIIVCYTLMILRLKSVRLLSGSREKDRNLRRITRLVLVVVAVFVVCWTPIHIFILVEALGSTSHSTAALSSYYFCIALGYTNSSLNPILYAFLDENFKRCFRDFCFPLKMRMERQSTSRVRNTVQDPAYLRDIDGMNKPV

[4] = molecular target: T1, Delta-type opioid receptor; assay: Inverse agonist activity at human DOR expressed in CHO cell membranes by [35S]GTPgammaS binding assay; type: functional
[5] = species: Homo sapiens; assay: Selectivity index, ratio of Ki for human KOR to Ki for human DOR
[6] = molecular target: T1, Delta-type opioid receptor; assay: Inverse agonist activity at human DOR expressed in CHO cell membranes by [35S]GTPgammaS binding assay relative to control; type: functional
[7] = species: Homo sapiens; assay: Selectivity index, ratio of Ki for human MOR to Ki for human DOR

T1 sequence (P41143 whole entry): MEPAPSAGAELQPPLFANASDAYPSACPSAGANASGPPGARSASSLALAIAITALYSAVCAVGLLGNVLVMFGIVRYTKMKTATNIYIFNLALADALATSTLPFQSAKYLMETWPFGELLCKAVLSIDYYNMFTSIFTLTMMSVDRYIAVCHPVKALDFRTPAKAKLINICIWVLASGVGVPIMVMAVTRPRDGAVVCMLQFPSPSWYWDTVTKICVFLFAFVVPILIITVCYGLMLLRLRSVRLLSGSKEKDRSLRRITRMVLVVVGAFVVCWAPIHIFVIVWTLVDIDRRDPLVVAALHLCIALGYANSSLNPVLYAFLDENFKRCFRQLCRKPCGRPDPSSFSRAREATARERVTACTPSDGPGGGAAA

| SMILES | Ki [1] | Ki [2] | Ki [3] | EC50 [4] | Ratio Ki [5] | Emax [6] | Ratio Ki [7] |
| --- | --- | --- | --- | --- | --- | --- | --- |
| Oc1ccc2c3c1O[C@H]1c4nc5ccccc5cc4C[C@@]4(O)[C@@H](C2)N(CC(F)F)CC[C@]314 | 18.2 nM | > 1000 nM | > 1000 nM |  |  |  |  |
| Oc1ccc2c3c1O[C@H]1c4nc5ccccc5cc4C[C@@]4(O)[C@@H](C2)N(CCF)CC[C@]314 | 5.58 nM | 422 nM | 854 nM | 24.7 nM | 153 | 27.1% | 75.7 |
| C=CCN(CC=C)[C@@H](Cc1ccc(O)cc1)C(=O)NC(C)(C)C(=O)NC(C)(C)C(=O)N[C@@H](Cc1ccccc1)C(=O)N[C@@H](CC(C)C)C(=O)O ({Tyr(Nα,Nα-allyl2)}-[Aib][Aib]FL-OH) |  |  |  | 116 nM |  | -100% |  |
| CCCN1CC[C@]23c4c5ccc(O)c4O[C@H]2c2nc4ccccc4cc2C[C@@]3(O)[C@H]1C5 | 2.77 nM | 123 nM | 313 nM | 5.85 nM | 113 | 62.4% | 44.5 |
| Oc1ccc2c3c1O[C@H]1c4[nH]c5ccccc5c4C[C@@]4(O)[C@@H](C2)N(CCF)CC[C@]314 | 1.94 nM | 675 nM | 397 nM | 220 nM | 204 | -38.1% | 348 |
| CCN1CC[C@]23c4c5ccc(O)c4O[C@H]2c2[nH]c4ccccc4c2C[C@@]3(O)[C@H]1C5 | 2.71 nM | 788 nM | 468 nM |  | 172 |  | 291 |
| CCN1CC[C@]23c4c5ccc(O)c4O[C@H]2c2nc4ccccc4cc2C[C@@]3(O)[C@H]1C5 | 8.89 nM | 670 nM | 477 nM | 6.71 nM | 53.7 | 41.2% | 75.4 |
| Oc1ccc2c3c1O[C@H]1c4nc5ccccc5cc4C[C@@]4(O)[C@@H](C2)N(CC2CC2)CC[C@]314 | 0.407 nM | 20.8 nM | 11 nM | 9.78 nM | 27.1 | 32.4% | 51.1 |
| Oc1ccc2c3c1O[C@H]1c4nc5ccccc5cc4C[C@@]4(O)[C@@H](C2)N(CC(F)(F)F)CC[C@]314 | 37.8 nM | > 1000 nM | > 1000 nM |  |  |  |  |
| CCCN1CC[C@]23c4c5ccc(O)c4O[C@H]2c2[nH]c4ccccc4c2C[C@@]3(O)[C@H]1C5 | 1.11 nM | 133 nM | 74.3 nM |  | 66.9 |  | 120 |
| Oc1ccc2c3c1O[C@H]1c4[nH]c5ccccc5c4C[C@@]4(O)[C@@H](C2)N(CC(F)(F)F)CC[C@]314 | 134 nM | > 1000 nM | > 1000 nM | 45.5 nM |  | -44.8% |  |
| Oc1ccc2c3c1O[C@H]1c4[nH]c5ccccc5c4C[C@@]4(O)[C@@H](C2)N(CC(F)F)CC[C@]314 | 15.5 nM | > 1000 nM | > 1000 nM | 17.2 nM |  | -48.6% |  |

Reference: ChEMBL document CHEMBL3596130 (Bioorg Med Chem Lett, 2015)
